Source: publication PMC12627862, “Therapeutic targeting of endothelial calcium signaling accelerates the resolution of lung injury” (Signal Transduction and Targeted Therapy, 2025)
Read-outs that look alike come from different tables or passages of the source. Starred links: 1 amine or outer side, 2 acyl side, 3 side chain; linkers in the order of their positions; H or OH if unused. Positions of bridges follow the written chain, without caps; N, C: chain ends. Non-standard residues stand in square brackets, D forms with d. Residues, ends and D or L forms follow the SMILES beside them. ξ: configuration not given here. X2 = C[C@@](CCCCC=[*:3])(N[*:1])C(=O)[*:2]; Oic = O=C(O)[C@@H]1C[C@@H]2CCCC[C@@H]2N1; GABOB(3R) = O=C(C[C@@H](O)CN[*:1])[*:2]; d(tBuAla) = CC(C)(C)C[C@@H](N)C(=O)O; dVal(3-OH) = CC(C)(O)[C@@H](N)C(=O)O; tBuAla = CC(C)(C)C[C@H](N)C(=O)O; ξVal(3-OH) = CC(C)(O)C(N)C(=O)O; R5 = C=CCCC[C@@](C)(N)C(=O)O; X1 = O=C(CC(O)CN[*:1])[*:2]; 4Amb = NCc1ccc(C(=O)O)cc1

Experiments:
[1] = Stability of selected EB3 inhibitors in human blood plasma; assay type: in vitro ADME
Method: Supplementary Table 3. Stability of selected EB3 inhibitors in human blood plasma. The indicated inhibitors were incubated with human plasma at 37 °C and samples were taken at the indicated time points. Plasma proteins were precipitated with ice-cold perchloric acid (60%); the concentration of compounds was measured in supernatant using a liquid chromatography-tandem mass spectrometry (LC-MS/MS). See also Figures 1 and 2.

[2] = system: human primary microvascular lung endothelial cells (HLMVECs); assay: Peptide uptake in endothelial cells; assay type: cell-based
Method: We next analyzed the cell-penetrating properties of the selected compounds, hereafter referred to as vascular therapeutics (VT). The rate of uptake of 5’6-FAM (fluorescein)-labeled compounds by human primary microvascular lung endothelial cells (HLMVECs) was determined via confocal fluorescence live-cell imaging. FAM-labeled Myr-EBIN[13] and fluorescein alone were used as positive and negative controls, respectively. The t½ uptake and maximal uptake were determined from changes in the integrated fluorescence intensity over a 30 min period (Fig. 2a and Supplementary Fig. 1a). […] Like Myr-EBIN, compounds VT-107, -108 and -109 presented the highest uptake rates of 92.5 ± 5.0%, 82.5 ± 2.8% and 94.7 ± 4.9%, respectively, whereas the linear compound VT-101 was taken up less efficiently, with an average uptake of 58.4 ± 2.7% (Fig. 2a). […] The t½ uptake, however, varied between the tested compounds (Fig. 2b). The stapled compounds presented the shortest t½ uptake, whereas the linear compounds presented the longest t½ (Fig. 2b).
Peptide uptake in endothelial cells. The rate of peptide uptake by primary human microvascular endothelial cells was measured using 5’6FAM (fluorescein)-labeled peptides and confocal fluorescence live-cell imaging, with fluorescein alone used as a negative control. Changes in intracellular fluorescence for each peptide were monitored over time, and saponin, a detergent, was added at the end of the experiment to induce full uptake of the tested peptides by endothelial cells. The fluorescence intensity inside the cells was tracked over time, and the half-time uptake (t1/2) and maximum uptake were calculated.

[3] = system: CD-1 mice subjected to mechanical ventilation; assay: High tidal volume mechanical ventilation (VILI); assay type: in vivo, mouse; settings: HVMV 40 mL/kg bw for 2 hours; i.v. 2 µmol/kg bw
From the text: Severely ill ARDS patients undergo intubation and are placed on a mechanical ventilator to maintain adequate oxygen levels in the body[42]. This supportive intervention can have detrimental effects on the lungs, leading to diffuse ventilator-induced lung injury (VILI) in the regions exposed to the highest pressure. Furthermore, VILI primarily targets alveolar epithelial cells, in contrast to indirect models of ARDS, such as endotoxemia and sepsis, where systemic inflammation predominantly injures the pulmonary endothelial barrier. Thus, as a part of a safety study, we investigated the effects of VT-109 on the pathogenesis of VILI. Mice that received vehicle or VT-109 at the most efficacious dose of 2 µmol/kg bw were subjected to high-volume mechanical ventilation (HVMV) at 40 mL/kg bw for 2 hours, and albumin extravasation was measured to determine VILI-induced vascular leakage (Fig. 4g, h).
Mice intubated with a 20-gauge catheter were ventilated using a Harvard Apparatus ventilator (Harvard Bioscience) with high tidal volumes of 40 mL/kg body weight, a respiratory rate of 80 breaths per minute, and no positive end-expiratory pressure (PEEP) for 2 hours to induce ventilator-induced lung injury (VILI). Intravenous treatment with 250 nmol/kg bw VT-109 was administered at the onset of HVMV. Mice breathing spontaneously were used as experimental control.

[4] = system: CD1 mice challenged with LPS; assay: Endotoxemia model, sublethal LPS in oil-preloaded mice; assay type: in vivo, mouse; settings: LPS 4 mg/kg i.p.
From the text: Considering the diverse etiological factors contributing to the pathogenesis of ARDS[29], we first assessed the therapeutic benefits of VT-109 in treating pulmonary vascular leakage in a murine model of endotoxemia-induced hyperinflammatory ARDS[30]. We induce a systemic inflammatory response by administering lipopolysaccharide (LPS), an endotoxin of the outer membrane of gram-negative bacteria, which elicits strong immune responses in animals, causing endothelial barrier breakdown and associated pulmonary edema, lung injury, morbidity, and mortality.
Using this model, we implemented two different i.v. treatment protocols with VT-109 (Fig. 3a, b). In cohort 1, mice received three daily doses of 1 µmol/kg bw VT-109 starting 24 hours after LPS challenge at the onset of lung injury. […] Cohort 3 mice received vehicle daily starting at 24 hours of LPS challenge. […] This inhibitory effect of VT-109 on neutrophil recruitment, a hallmark of lung inflammation and poor clinical prognosis, was consistent with our previous work[3]. Overall, our findings indicate that treating pulmonary vascular leakage reduces lung inflammation, in part, by restricting neutrophil transmigration through the endothelial barrier. […]
Evans’ blue-labeled albumin extravasation. […] The optical density of the supernatant was measured spectrophotometrically at 620 nm (Evans Blue) and 740 nm (hemoglobin correction), with the dye content normalized to the wet weight of the lungs. Corrections for hemoglobin were made as follows: Corrected absorbance (Evans blue) = Absorbance (620) - (1.426 × Absorbance (740) + 0.03). […]
Myeloperoxidase (MPO) measurements. […] MPO levels in the samples were determined using the o-dianisidine-H₂O₂ technique following enzyme extraction with hexadecyl-trimethylammonium bromide (HTAB). The absorbance change was measured at […] over a 3-minute period, and the data were expressed as ΔOD460/min/g lung tissue.

Structure (SMILES)	remaining at 1.5 h ([1]; human plasma, 37 °C, 1.5 hr, perchloric acid (60%) precipitation, LC-MS/MS, read-out: compound remaining in human plasma) [%]	remaining at 20 h ([1]; human plasma, 37 °C, 20 hr, perchloric acid (60%) precipitation, LC-MS/MS, read-out: compound remaining in human plasma) [%]	uptake, percentage of the maximal values obtained following saponin treatment ([2]; 5’6-FAM-labeled compounds, HLMVECs, confocal live-cell imaging over 30 min, mean ± SEM, n = 16–45 cells per group) [%]	half-time uptake t1/2 ([2]; 5’6-FAM-labeled compounds, HLMVECs, confocal live-cell imaging, n = 3 independent experiments) [min]	penetration of the cell membrane ([2]; 5’6-FAM-labeled compounds, HLMVECs, no cell internalization signal)	VILI-induced vascular albumin leakage [3]	recruitment of neutrophils (MPO levels in the lung tissues) [3]	remaining at 1.5 h ([1]; human, plasma) [%]	remaining at 20 h ([1]; human, plasma) [%]	pulmonary edema (EBA extravasation) ([4]; cohort 1: three daily i.v. doses of 1 µmol/kg bw starting 24 hours after LPS)	pulmonary edema (EBA extravasation) ([4]; cohort 2: two daily i.v. doses of 1 µmol/kg bw starting 72 hours after LPS)	myeloperoxidase (MPO) in the lung tissue ([4]; regardless of the treatment initiation time)	half-time uptake t1/2 [2] [min]	penetration of the cell membrane [2]
CC(C)(C)C[C@@H]1NC(=O)[C@](C)(NC(=O)c2ccc(CNC(=O)[C@H](N)C(C)(C)O)cc2)CCC/C=C\CCCC[C@@](C)(C(=O)N[C@H](CC(C)(C)C)C(=O)O)NC(=O)CC(O)CNC(=O)[C@@H]2C[C@@H]3CCCC[C@@H]3N2C1=O (stereo partly drawn) [compound 108, (2R)-2-((8S,18R,21S,23aS,27aS,28aS,Z)-18-(4-(((R)-2-amino-3-hydroxy-3-methylbutanamido)methyl)benzamido)-4-hydroxy-8,18-dimethyl-21-neopentyl-1,6,19,22-tetraoxo-1,2,3,4,5,6,7,8,9,10,11,12,15,16,17,18,19,20,21,22,23a,24,25,26,27,27a,28,28a-octacosahydro-[1,4,7,12]tetraazacyclotetracosino[4,5-a]indole-8-carboxamido)-4,4-dimethylpentanoic acid] (H-[dVal(3-OH)][4Amb][R5][tBuAla][Oic][X1][X2][d(tBuAla)]-OH; staple (Z) 3-7)	80	65	82.5 ± 2.8	0.36 ± 0.12	able to penetrate the cell membrane without the addition of a cell internalization signal	–	–	–	–	–	–	–	–	–
CC(C)(C)C[C@@H]1NC(=O)C[C@@H](O)CNC(=O)[C@@H]2C[C@@H]3CCCC[C@@H]3N2C(=O)[C@H](CC(C)(C)C)NC(=O)c2ccc(cc2)CNC(=O)C(C(C)(C)O)NC(=O)[C@@H](Cc2ccccc2)NC1=O (stereo partly drawn) [compound 109, (1^2S,1^3aS,1^7aS,3S,10S,13R,16S,20R)-13-benzyl-20-hydroxy-10-(2-hydroxypropan-2-yl)-3,16-dineopentyl-1^2,1^3,1^3a,1^4,1^5,1^6,1^7,1^7a-octahydro-1^1H-4,8,11,14,17,22-hexaaza-1(1,2)-indola-6(1,4)-benzenacyclotricosaphane-2,5,9,12,15,18,23-heptaone.] (cyclo([4Amb][tBuAla][Oic][GABOB(3R)][tBuAla][dF][ξVal(3-OH)]))	–	–	–	–	–	markedly reduced leakage	prevented	90	91	promptly blocked the development of pulmonary edema	accelerated the resolution of pulmonary edema	consistently lowered	3.42 ± 0.01	able to penetrate the cell membrane without the addition of a cell internalization signal
